Test system: 931267-113-T-J1-PDC multicell spheroid viability
Assay: Anticancer human tumor 931267-113-T-J1-PDC patient-derived colon adenocarcinoma cell line growth inhibition [PI3K]
Details: for IC50: curve of first compound; for viability, T/C: stronger effect = lower value
Summary of the method: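 We assembled tumor spheroids that included a stromal compartment of HUVEC and MSCs, then exposed them to targeted agents alone and together with PI3K pathway inhibitors. Concentration series descended by half-log from clinically achievable Cmax levels. Viability served as the endpoint.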

[1] = second compound 0.00316 µM, first compound 0.0316 µM
[2] = second compound 0.00316 µM, first compound 0.1 µM
[3] = second compound 0.01 µM, first compound 0.0316 µM
[4] = second compound 0.01 µM, first compound 0.1 µM
[5] = second compound 0.0316 µM, first compound 0.0316 µM
[6] = second compound 0.0316 µM, first compound 0.1 µM
[7] = second compound 0.1 µM, first compound 0.0316 µM
[8] = second compound 0.1 µM, first compound 0.1 µM
[9] = second compound 0.316 µM, first compound 0.0316 µM
[10] = second compound 0.316 µM, first compound 0.1 µM
[11] = second compound 1 µM, first compound 0.0316 µM
[12] = second compound 1 µM, first compound 0.1 µM
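Further: viability read 7 days after compound addition.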

`CC(C)n1nc(-c2ccc3oc(N)nc3c2)c2c(N)ncnc21` + COc1c(OCCCN2CCOCC2)ccc2c3n(c(=NC(=O)c4cnc(N)nc4)nc12)CCN3 was tested. Which IC50 (second compound 0.00316 µM) did it give?
The IC50 was 93.1 nM.

What about the IC50 (second compound 0.01 µM) of the same compound?
Its IC50 is 91.6 nM.

What about the IC50 (second compound 0.0316 µM) of the same compound?
The IC50 was 68.5 nM.

And the IC50 (second compound 0.1 µM)?
Its IC50 is 31.2 nM.

What about the IC50 (second compound 0.316 µM) of the same compound?
The IC50 was 1.49 nM.

What about the IC50 (second compound 1 µM) of the same compound?
The IC50 was less than 0.316 nM.

And the viability, T/C (second compound 0.00316 µM, first compound 0.000316 µM)?
The viability, T/C was 90.4%.

And the viability, T/C (second compound 0.00316 µM, first compound 0.001 µM)?
Its viability, T/C is 97.9%.

And the viability, T/C (second compound 0.00316 µM, first compound 0.00316 µM)?
Its viability, T/C is 94.1%.

And the viability, T/C (second compound 0.00316 µM, first compound 0.01 µM)?
The viability, T/C was 96%.

And the viability, T/C [1]?
Its viability, T/C is 88.6%.

What about the viability, T/C [2] of the same compound?
Its viability, T/C is 47.3%.

What about the viability, T/C (second compound 0.01 µM, first compound 0.000316 µM) of the same compound?
Its viability, T/C is 96.2%.

And the viability, T/C (second compound 0.01 µM, first compound 0.001 µM)?
The viability, T/C was 90.2%.

And the viability, T/C (second compound 0.01 µM, first compound 0.00316 µM)?
Its viability, T/C is 88.1%.

What about the viability, T/C (second compound 0.01 µM, first compound 0.01 µM) of the same compound?
Its viability, T/C is 82.3%.

What about the viability, T/C [3] of the same compound?
The viability, T/C was 75.4%.

What about the viability, T/C [4] of the same compound?
The viability, T/C was 47.2%.

And the viability, T/C (second compound 0.0316 µM, first compound 0.000316 µM)?
The viability, T/C was 90.5%.

And the viability, T/C (second compound 0.0316 µM, first compound 0.001 µM)?
The viability, T/C was 82.1%.

And the viability, T/C (second compound 0.0316 µM, first compound 0.00316 µM)?
Its viability, T/C is 80.5%.

What about the viability, T/C (second compound 0.0316 µM, first compound 0.01 µM) of the same compound?
The viability, T/C was 72.4%.

What about the viability, T/C [5] of the same compound?
Its viability, T/C is 60.3%.

What about the viability, T/C [6] of the same compound?
The viability, T/C was 44.6%.

And the viability, T/C (second compound 0.1 µM, first compound 0.000316 µM)?
Its viability, T/C is 76.5%.

What about the viability, T/C (second compound 0.1 µM, first compound 0.001 µM) of the same compound?
Its viability, T/C is 66%.

What about the viability, T/C (second compound 0.1 µM, first compound 0.00316 µM) of the same compound?
Its viability, T/C is 64.4%.

What about the viability, T/C (second compound 0.1 µM, first compound 0.01 µM) of the same compound?
The viability, T/C was 60.9%.

What about the viability, T/C [7] of the same compound?
The viability, T/C was 51.8%.

And the viability, T/C [8]?
The viability, T/C was 34.5%.

What about the viability, T/C (second compound 0.316 µM, first compound 0.000316 µM) of the same compound?
Its viability, T/C is 55.5%.

And the viability, T/C (second compound 0.316 µM, first compound 0.001 µM)?
The viability, T/C was 50.8%.

And the viability, T/C (second compound 0.316 µM, first compound 0.00316 µM)?
Its viability, T/C is 46.3%.

And the viability, T/C (second compound 0.316 µM, first compound 0.01 µM)?
The viability, T/C was 43.1%.

And the viability, T/C [9]?
Its viability, T/C is 36%.

And the viability, T/C [10]?
Its viability, T/C is 29%.

What about the viability, T/C (second compound 1 µM, first compound 0.000316 µM) of the same compound?
Its viability, T/C is 37.1%.

What about the viability, T/C (second compound 1 µM, first compound 0.001 µM) of the same compound?
Its viability, T/C is 35.8%.

What about the viability, T/C (second compound 1 µM, first compound 0.00316 µM) of the same compound?
The viability, T/C was 35.3%.

What about the viability, T/C (second compound 1 µM, first compound 0.01 µM) of the same compound?
Its viability, T/C is 32.1%.

And the viability, T/C [11]?
Its viability, T/C is 27.5%.

What about the viability, T/C [12] of the same compound?
The viability, T/C was 22.2%.

`CC1(C)CCC(CN2CCN(c3ccc(C(=O)NS(=O)(=O)c4ccc(NCC5CCOCC5)c([N+](=O)[O-])c4)c(Oc4cnc5[nH]ccc5c4)c3)CC2)=C(c2ccc(Cl)cc2)C1` + COc1c(OCCCN2CCOCC2)ccc2c3n(c(=NC(=O)c4cnc(N)nc4)nc12)CCN3 was tested. Which IC50 (second compound 0.00316 µM) did it give?
Its IC50 is greater than 10000 nM.

And the IC50 (second compound 0.01 µM)?
The IC50 was greater than 10000 nM.

And the IC50 (second compound 0.0316 µM)?
Its IC50 is greater than 10000 nM.

What about the IC50 (second compound 0.1 µM) of the same compound?
The IC50 was 7490 nM.

What about the IC50 (second compound 0.316 µM) of the same compound?
The IC50 was 2360 nM.

And the IC50 (second compound 1 µM)?
Its IC50 is less than 31.6 nM.

And the viability, T/C [1]?
The viability, T/C was 105%.

What about the viability, T/C [2] of the same compound?
Its viability, T/C is 99.5%.

What about the viability, T/C (second compound 0.00316 µM, first compound 0.316 µM) of the same compound?
Its viability, T/C is 99%.

And the viability, T/C (second compound 0.00316 µM, first compound 1 µM)?
Its viability, T/C is 102%.

What about the viability, T/C (second compound 0.00316 µM, first compound 3.16 µM) of the same compound?
Its viability, T/C is 99.7%.

And the viability, T/C (second compound 0.00316 µM, first compound 10 µM)?
Its viability, T/C is 80.8%.

What about the viability, T/C [3] of the same compound?
Its viability, T/C is 104%.

And the viability, T/C [4]?
Its viability, T/C is 104%.

And the viability, T/C (second compound 0.01 µM, first compound 0.316 µM)?
The viability, T/C was 97.6%.

What about the viability, T/C (second compound 0.01 µM, first compound 1 µM) of the same compound?
Its viability, T/C is 91.7%.

What about the viability, T/C (second compound 0.01 µM, first compound 3.16 µM) of the same compound?
Its viability, T/C is 96.5%.

What about the viability, T/C (second compound 0.01 µM, first compound 10 µM) of the same compound?
Its viability, T/C is 71.1%.

What about the viability, T/C [5] of the same compound?
Its viability, T/C is 92.4%.

And the viability, T/C [6]?
Its viability, T/C is 89.8%.

And the viability, T/C (second compound 0.0316 µM, first compound 0.316 µM)?
Its viability, T/C is 92.8%.

And the viability, T/C (second compound 0.0316 µM, first compound 1 µM)?
Its viability, T/C is 86.4%.

What about the viability, T/C (second compound 0.0316 µM, first compound 3.16 µM) of the same compound?
The viability, T/C was 87.3%.

What about the viability, T/C (second compound 0.0316 µM, first compound 10 µM) of the same compound?
Its viability, T/C is 68.2%.

What about the viability, T/C [7] of the same compound?
The viability, T/C was 74.9%.

And the viability, T/C [8]?
The viability, T/C was 74.8%.

And the viability, T/C (second compound 0.1 µM, first compound 0.316 µM)?
The viability, T/C was 71.2%.

And the viability, T/C (second compound 0.1 µM, first compound 1 µM)?
Its viability, T/C is 65.1%.

What about the viability, T/C (second compound 0.1 µM, first compound 3.16 µM) of the same compound?
Its viability, T/C is 59.5%.

What about the viability, T/C (second compound 0.1 µM, first compound 10 µM) of the same compound?
The viability, T/C was 46.8%.

And the viability, T/C [9]?
The viability, T/C was 53.5%.

And the viability, T/C [10]?
Its viability, T/C is 50.3%.

What about the viability, T/C (second compound 0.316 µM, first compound 0.316 µM) of the same compound?
The viability, T/C was 49.2%.

What about the viability, T/C (second compound 0.316 µM, first compound 1 µM) of the same compound?
The viability, T/C was 51.7%.

And the viability, T/C (second compound 0.316 µM, first compound 3.16 µM)?
Its viability, T/C is 49.6%.

What about the viability, T/C (second compound 0.316 µM, first compound 10 µM) of the same compound?
Its viability, T/C is 31.3%.

What about the viability, T/C [11] of the same compound?
The viability, T/C was 37.5%.

What about the viability, T/C [12] of the same compound?
Its viability, T/C is 32.5%.

What about the viability, T/C (second compound 1 µM, first compound 0.316 µM) of the same compound?
The viability, T/C was 35.8%.

And the viability, T/C (second compound 1 µM, first compound 1 µM)?
The viability, T/C was 36.1%.

What about the viability, T/C (second compound 1 µM, first compound 3.16 µM) of the same compound?
Its viability, T/C is 33.7%.

What about the viability, T/C (second compound 1 µM, first compound 10 µM) of the same compound?
The viability, T/C was 33.3%.
